Test results: patent US6355799B1, “Substituted benzene compounds, process for their preparation, and herbicidal and defoliant compositions containing them” (ISK Americas Incorporated, priority 1997, dated 2002)

How the values were obtained:
Assay type in all cases: in vivo
[1] = tested on: velvetleaf (Abutilon theophrasti, ABUTH); assay: Post-emerge test, greenhouse herbicide activity screening; settings: rating scale 0-100 (0 no damage, 100 complete death), 14 days after application
Procedure, shortened: (§1)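 Each test used a mechanized track sprayer delivering 187 l/ha of acetone solution at 15–1000 g ai/ha. Post-emerge foliage at 2–3 leaves was treated with added 0.25% v/v non-ionic surfactant and bottom-watered only. Injury was assessed on day 14, where 100 means total kill.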

[2] = tested on: common ragweed (Ambrosia artemisizfolia L., AMBEL); assay: as above; settings: rating scale 0-100 (0 no damage, 100 complete death), 14 days after application
Procedure, shortened: as §1

[3] = tested on: sicklepod (Cassia obtusifolia, CASOB); assay: as above; settings: rating scale 0-100 (0 no damage, 100 complete death), 14 days after application
Procedure, shortened: as §1

[4] = tested on: green foxtail (Setaria viridis, SETVI); assay: as above; settings: rating scale 0-100 (0 no damage, 100 complete death), 14 days after application
Procedure, shortened: as §1

[5] = tested on: large crabgrass (Digitaria sanguinalis, DIGSA); assay: as above; settings: rating scale 0-100 (0 no damage, 100 complete death), 14 days after application
Procedure, shortened: as §1

[6] = tested on: redroot pigweed (Amaranthus retroflexus, AMARE); assay: as above; settings: rating scale 0-100 (0 no damage, 100 complete death), 14 days after application
Procedure, shortened: as §1

[7] = tested on: ivyleaf morningglory (Ipomoea hederacea, IPOHE); assay: as above; settings: rating scale 0-100 (0 no damage, 100 complete death), 14 days after application
Procedure, shortened: as §1

[8] = tested on: johnsongrass (Sorghum halepense, SORHA); assay: as above; settings: rating scale 0-100 (0 no damage, 100 complete death), 14 days after application
Procedure, shortened: as §1

[9] = tested on: barnyardgrass (Echinochloa crus-galli, ECHCG); assay: as above; settings: rating scale 0-100 (0 no damage, 100 complete death), 14 days after application
Procedure, shortened: as §1

[10] = tested on: lambsquarters (Chenopodium album, CHEAL); assay: as above; settings: rating scale 0-100 (0 no damage, 100 complete death), 14 days after application
Procedure, shortened: as §1

[11] = tested on: upland rice (Oryza sp., var. Tebonnet, RICE); assay: Post-emerge test, crop safety; settings: rating scale 0-100 (0 no damage, 100 complete death), 14 days after application
Procedure, shortened: (§2)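 Sandy loam pots; pre-emerge: sown 1 d pre-spray, surface-watered after, then bottom-watered. Post-emerge: sown 8–21 d before, 2–3 leaf stage, + 0.25% v/v NIS, bottom-watered. Acetone, 187 l/ha track spray, 15–1000 g ai/ha. 0–100 injury score, day 14.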

[12] = tested on: field corn (Zea mays L., var. Dekalb 535, CORN); assay: Post-emerge test, crop safety; settings: rating scale 0-100 (0 no damage, 100 complete death), 14 days after application
Procedure, shortened: as §2

[13] = tested on: redroot pigweed (Amaranthus retroflexus, AMARE); assay: Pre-emerge test, greenhouse herbicide activity screening; settings: rating scale 0-100, 14 days after application
Procedure, shortened: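 Visual ratings on a 0-100 scale (0 no damage, 100 all plants dead) were taken at 14 days after treatment. Rates of 15-1000 g ai/ha in acetone, 187 l/ha, were sprayed onto soil one day after planting (pre-emerge) or onto 2-3 leaf plants with 0.25% v/v surfactant (post-emerge).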

[14] = tested on: velvetleaf (Abutilon theophrasti, ABUTH); assay: as above; settings: rating scale 0-100, 14 days after application
Procedure, shortened: as §2

[15] = tested on: sicklepod (Cassia obtusifolia, CASOB); assay: as above; settings: rating scale 0-100, 14 days after application
Procedure, shortened: as §2

[16] = tested on: green foxtail (Setaria viridis, SETVI); assay: as above; settings: rating scale 0-100, 14 days after application
Procedure, shortened: as §2

[17] = tested on: large crabgrass (Digitaria sanguinalis, DIGSA); assay: as above; settings: rating scale 0-100, 14 days after application
Procedure, shortened: as §2

[18] = tested on: ivyleaf morningglory (Ipomoea hederacea, IPOHE); assay: as above; settings: rating scale 0-100, 14 days after application
Procedure, shortened: as §2

[19] = tested on: johnsongrass (Sorghum halepense, SORHA); assay: as above; settings: rating scale 0-100, 14 days after application
Procedure, shortened: as §2

[20] = tested on: barnyardgrass (Echinochloa crus-galli, ECHCG); assay: as above; settings: rating scale 0-100, 14 days after application
Procedure, shortened: as §2

[21] = tested on: lambsquarters (Chenopodium album, CHEAL); assay: as above; settings: rating scale 0-100, 14 days after application
Procedure, shortened: as §2

[22] = tested on: upland rice (Oryza sp., var. Tebonnet, RICE); assay: Pre-emerge test, crop safety; settings: rating scale 0-100, 14 days after application
Procedure, shortened: (§3)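 Plants grown in 10 cm pots of sandy loam mix received acetone-dissolved compounds through a moving flat-fan nozzle. Doses ranged from 15 to 1000 g ai/ha. Pre-emerge pots were seeded one day earlier, post-emerge pots 8–21 days earlier. Fourteen days on, each pot was graded 0–100 for damage.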

[23] = tested on: field corn (Zea mays L., var. Dekalb 535, CORN); assay: Pre-emerge test, crop safety; settings: rating scale 0-100, 14 days after application
Procedure, shortened: as §3

CCOC(=O)C(Br)Cc1c(OC)c(Cl)cc(F)c1-n1c(=O)cc(C(F)(F)F)n(C)c1=O (single isomer, unassigned) [14-32]
Post-emerge Herbicidal Activity, phytotoxicity rating ABUTH ([1]; Rate 63 g ai/ha): 90
Post-emerge Herbicidal Activity, phytotoxicity rating ABUTH ([1]; Rate 250 g ai/ha): 95
Post-emerge Herbicidal Activity, phytotoxicity rating AMBEL ([2]; Rate 63 g ai/ha): 40
Post-emerge Herbicidal Activity, phytotoxicity rating AMBEL ([2]; Rate 250 g ai/ha): 40
Post-emerge Herbicidal Activity, phytotoxicity rating CASOB ([3]; Rate 63 g ai/ha): 20
Post-emerge Herbicidal Activity, phytotoxicity rating CASOB ([3]; Rate 250 g ai/ha): 40
Post-emerge Herbicidal Activity, phytotoxicity rating SETVI ([4]; Rate 63 g ai/ha): 40
Post-emerge Herbicidal Activity, phytotoxicity rating SETVI ([4]; Rate 250 g ai/ha): 70
Post-emerge Herbicidal Activity, phytotoxicity rating DIGSA ([5]; Rate 63 g ai/ha): 70
Post-emerge Herbicidal Activity, phytotoxicity rating DIGSA ([5]; Rate 250 g ai/ha): 90
Post-emerge Herbicidal Activity, phytotoxicity rating AMARE ([6]; Rate 63 g ai/ha): 95
Post-emerge Herbicidal Activity, phytotoxicity rating AMARE ([6]; Rate 250 g ai/ha): 100
Post-emerge Herbicidal Activity, phytotoxicity rating IPOHE ([7]; Rate 63 g ai/ha): 0
Post-emerge Herbicidal Activity, phytotoxicity rating IPOHE ([7]; Rate 250 g ai/ha): 20
Post-emerge Herbicidal Activity, phytotoxicity rating SORHA ([8]; Rate 63 g ai/ha): 0
Post-emerge Herbicidal Activity, phytotoxicity rating SORHA ([8]; Rate 250 g ai/ha): 10
Post-emerge Herbicidal Activity, phytotoxicity rating ECHCG ([9]; Rate 63 g ai/ha): 100
Post-emerge Herbicidal Activity, phytotoxicity rating ECHCG ([9]; Rate 250 g ai/ha): 100
Post-emerge Herbicidal Activity, phytotoxicity rating CHEAL ([10]; Rate 63 g ai/ha): 0
Post-emerge Herbicidal Activity, phytotoxicity rating CHEAL ([10]; Rate 250 g ai/ha): 80
Post-emerge phytotoxicity rating RICE (crop damage) ([11]; Rate 63 g ai/ha): 0
Post-emerge phytotoxicity rating RICE (crop damage) ([11]; Rate 250 g ai/ha): 0
Post-emerge phytotoxicity rating CORN (crop damage) ([12]; Rate 63 g ai/ha): 0
Post-emerge phytotoxicity rating CORN (crop damage) ([12]; Rate 250 g ai/ha): 0
Pre-emerge herbicidal activity, phytotoxicity rating AMARE ([13]; 63 g ai/ha): 100
Pre-emerge herbicidal activity, phytotoxicity rating AMARE ([13]; 250 g ai/ha): 100
Pre-emerge herbicidal activity, phytotoxicity rating ABUTH ([14]; 63 g ai/ha): 10
Pre-emerge herbicidal activity, phytotoxicity rating ABUTH ([14]; 250 g ai/ha): 50
Pre-emerge herbicidal activity, phytotoxicity rating CASOB ([15]; 63 g ai/ha): 0
Pre-emerge herbicidal activity, phytotoxicity rating CASOB ([15]; 250 g ai/ha): 30
Pre-emerge herbicidal activity, phytotoxicity rating SETVI ([16]; 63 g ai/ha): 0
Pre-emerge herbicidal activity, phytotoxicity rating SETVI ([16]; 250 g ai/ha): 40
Pre-emerge herbicidal activity, phytotoxicity rating DIGSA ([17]; 63 g ai/ha): 20
Pre-emerge herbicidal activity, phytotoxicity rating DIGSA ([17]; 250 g ai/ha): 100
Pre-emerge herbicidal activity, phytotoxicity rating IPOHE ([18]; 63 g ai/ha): 0
Pre-emerge herbicidal activity, phytotoxicity rating IPOHE ([18]; 250 g ai/ha): 0
Pre-emerge herbicidal activity, phytotoxicity rating SORHA ([19]; 63 g ai/ha): 0
Pre-emerge herbicidal activity, phytotoxicity rating SORHA ([19]; 250 g ai/ha): 20
Pre-emerge herbicidal activity, phytotoxicity rating ECHCG ([20]; 63 g ai/ha): 0
Pre-emerge herbicidal activity, phytotoxicity rating ECHCG ([20]; 250 g ai/ha): 30
Pre-emerge herbicidal activity, phytotoxicity rating CHEAL ([21]; 63 g ai/ha): 80
Pre-emerge herbicidal activity, phytotoxicity rating CHEAL ([21]; 250 g ai/ha): 100
Pre-emerge phytotoxicity rating, crop damage RICE ([22]; 63 g ai/ha): 0
Pre-emerge phytotoxicity rating, crop damage RICE ([22]; 250 g ai/ha): 10
Pre-emerge phytotoxicity rating, crop damage CORN ([23]; 63 g ai/ha): 0
Pre-emerge phytotoxicity rating, crop damage CORN ([23]; 250 g ai/ha): 0
